Where “and” joins values, the source holds several entries; their conditions need not be identical. Equal values may be shown once.
What was measured:
P53 = assay: NP21280 solid tumor trial, tumor biopsy biomarker (p53 IHC); type: in vivo, human; settings: at C1D10, p=2.88×10−3
Procedure: The predictive mRNA signature is also evaluated in two solid tumor trials (FIG. 1). […] In both clinical trials, a biomarker package that enabled assessment of p53 pathway activation is assessed (p53 IHC, p21 IHC, MDM2 mRNA, and Ki67), MDM2 inhibition activates the P53 pathway and decreases cell proliferation.

[1] = tested on: Ki-67-positive tumor cells; settings: NP22890; as previously reported; cited from earlier work
[2] = tested on: 4-gene mRNA signature score (MDM2, XPC, BBC3, CDKN2A); assay: NO21279 4-gene mRNA signature score on treatment; type: in vivo, human
Procedure: MDM2 mRNA concentrations were assessed at Roche Molecular Systems by quantitative real-time PCR with 50 ng total RNA from MACs isolated leukemia cells from blood. TaqMan (Invitrogen, Carlsbad, Calif., USA) probes were designed to detect MDM2 mRNA and the reference mRNA, beta-glucuronidase, simultaneously using two different fluorescent reporters. Gene expression profiles were generated using Affymetrix U133 Plus 2.0 microarrays. Probset ID's for the each of the four genes on said U133 Plus 2.0 microarray are: 209375_s_at (for XPC); 205386_s_at and 211832_s_at (MDM2); 211692_s_at (BBC3); 207039_at and 211156_at (CDKN2A). The “mRNA expression level” for one of the 4 genes according to the present invention is the accumulation of all counts falling into the range of exons of a gene (e.g. MDM2). […] The predictive patient signature score according to the present invention is then calculated using the following equation: patient signature score=GMDM2+GXPC+GBBC3−GCDKN2A. G in the formula stands for log 2 transformed mRNA expression levels as obtained from patient samples, for example blood leukemia or bone marrow biopsy samples. For example, for the patient data reported in Table 9 (Example 5), G is log 2 of the mRNA probeset expression of the relevant gene as measured with Affymetrix U133 Plus 2.0 microarrays.
Risk scores are calculated for patients based on their mRNA expression values of the 4 genes at baseline prior to treatment. To ensure a rigorous and an unbiased validation, the compute of the coefficients in the test cohort is not done. However, due to the platform difference and the biological differences between patients and cell lines, in-vitro coefficients for the patient level classifier is not applied.

P21 = settings: NP22890; at C1D8; as previously reported; cited from earlier work
MDM2 mRNA [3] = assay: NO21279 pharmacodynamic response, MDM2 mRNA by quantitative real-time PCR in leukemia cells; type: in vivo, human
Procedure: The performance of the MDM2 antagonist predictive mRNA response signature is tested in the clinical setting with specimens from the NO21279 leukemia trial (FIG. 1). 28 AML patients treated at the MTD are enrolled and completed pretreatment and C1D10 (cycle 1, day 10) sampling. […] The clinical endpoint in NO21279 was divided into 4 categories: Complete Response (CR), Morphologic Leukemia-Free State (MLFS), Hematologic Improvement (HI), and Progressive Disease (PD). Blood leukemia samples and bone marrow biopsy samples were collected at baseline screening, after a single dose (cycle 1 day 2, C1D2) and on last day of dosing (cycle 1, day 10, C1D10) and isolated via MACS® separation^11. The early pharmacodynamic effect of MDM2 antagonism in blood leukemia samples was assessed by measuring MDM2 RT PCR change between baseline and C1D10. Global gene expression profiles were generated for the peripheral blood leukemia cells and bone marrow biopsy samples obtained at baseline, C1D2 and C1D10.
MDM2 mRNA concentrations were assessed at Roche Molecular Systems by quantitative real-time PCR with 50 ng total RNA from MACs isolated leukemia cells from blood. TaqMan (Invitrogen, Carlsbad, Calif., USA) probes were designed to detect MDM2 mRNA and the reference mRNA, beta-glucuronidase, simultaneously using two different fluorescent reporters. Gene expression profiles were generated using Affymetrix U133 Plus 2.0 microarrays. Probset ID's for the each of the four genes on said U133 Plus 2.0 microarray are: 209375_s_at (for XPC); 205386_s_at and 211832_s_at (MDM2); 211692_s_at (BBC3); 207039_at and 211156_at (CDKN2A). […] The predictive patient signature score according to the present invention is then calculated using the following equation: patient signature score=GMDM2+GXPC+GBBC3−GCDKN2A. […] For example, for the patient data reported in Table 9 (Example 5), G is log 2 of the mRNA probeset expression of the relevant gene as measured with Affymetrix U133 Plus 2.0 microarrays.

MDM2 mRNA [4] = assay: NP21280 solid tumor trial, tumor biopsy biomarker (MDM2 mRNA); type: in vivo, human; settings: at C1D10, p=1.03×10−5

## CCOc1cc(C(C)(C)C)ccc1C1=N[C@@](C)(c2ccc(Cl)cc2)[C@@](C)(c2ccc(Cl)cc2)N1C(=O)N1CCN(CCCS(C)(=O)=O)CC1 [COMPOUND A]
P53
  P53 concentration change from baseline: significantly increase
[1]
  Ki-67-positive tumor cells change from baseline: decreased
[2]; C1D2, CR patients, IQR 1.13-1.15
  median signature score over baseline: 1.15 times
[2]; C1D2, HI patients, IQR 1.04-1.10
  median signature score over baseline: 1.08 times
[2]; C1D2, MLFS patients, IQR 1.14-1.19
  median signature score over baseline: 1.17 times
[2]; C1D2, PD patients, IQR 1.05-1.16
  median signature score over baseline: 1.11 times
[2]; C1D10, CR patients, IQR 1.22-1.24
  median signature score over baseline: 1.23 times
[2]; C1D10, HI patients, IQR 1.23-1.30
  median signature score over baseline: 1.25 times
[2]; C1D10, IQR 1.88-4.23
  overall signature score over baseline: 3.05 times
[2]; C1D10, MLFS patients, IQR 1.23-1.31
  median signature score over baseline: 1.26 times
[2]; C1D10, PD patients, IQR 1.08-1.21
  median signature score over baseline: 1.14 times
P21
  P21 concentration change from baseline: significantly increase
MDM2 mRNA [3]; C1D10 vs baseline, IQR 1.62-4.59, NO21279
  median MDM2 mRNA expression increase over baseline: 2.46 times
MDM2 mRNA [3]; all patients, IQR 1.62-4.59
  MDM2 mRNA (RT-PCR) fold change over baseline (C1D10), median increase: 2.46x (IQR:
MDM2 mRNA [3]; individual AML patients (no. 1-28), NO21279, blood leukemia cells, listed as RG7112
  MDM2 mRNA (RT-PCR) fold change over baseline (C1D10): 2.23 fold and 5.67 fold and 5.05 fold and 9.66 fold and 1.79 fold and 23.00 fold and 2.01 fold and 1.72 fold and 5.07 fold and 3.20 fold and 4.35 fold and 1.27 fold and 2.51 fold and 0.96 fold and 1.69 fold and 2.26 fold and 1.52 fold and 3.88 fold and 2.65 fold and 5.11 fold and 9.46 fold and 1.00 fold and 1.59 fold and 1.67 fold and 3.00 fold
MDM2 mRNA [4]
  MDM2 mRNA expression change from baseline: significantly increase
